Test results from patent publication US6623933B1 (priority 1999, dated 2003).
Structures can show the parent of a compound that is named as a salt.

Legend:
NR1/NR2D (NR1100) = NR1/NR2D (NR1100) (Rattus norvegicus, UniProt P35439+Q62645); assay: cell-based
Description: Plasmids containing the NR1100 (NR1G) and NR2A cDNA inserts were kindly provided by Dr. Nakanishi (Kyoto University Faculty of Medicine, Kyoto, Japan). Plasmids containing the NR2B, NR2C and NR2D cDNA inserts were kindly provided by Dr. P. Seeburg (Heidelberg University, Heidelberg, Germany). Plasmids were linearized with appropriate restriction enzyme prior to in vitro transcription using the Message Machine kit (Ambion, Inc., Austin, Tex.).
Female, oocyte-positive Xenopus laevis frogs were purchased from Xenopus I (Dexter, Mich.). […] Oocytes were injected with 50 nL of RNA solutions using an electronic microinjector (Drummond Inc., Broomall, Pa.). […] The injected oocytes were used for experiments following 1-5 days of incubation in Barth's solution at 18-20° C.
The microelectrodes were fabricated from borosilicate glass capillaries with a programmed puller (Sutter Instrument Co., Calif.). Microelectrode resistance was 1-3 MΩ_when filled with 3 M KCl.
Except where otherwise stated, oocytes were clamped at a holding potential of −70 mV during data acquisition. The membrane current was filtered at 500 Hz and sampled at 100 Hz. Drugs were applied using a gravity-driven external perfusion system. The working volume of the recording chamber was 30 μl and the rate of the perfusion was 50 μl/sec. The drug application lasted 10 sec and was followed by 60 s wash. Data acquisition and external perfusion were controlled using custom-written software implemented in the SuperScope II development environment (GW Instruments, Mass.). All experiments were performed at room temperature of 22-24° C. Peak or steady-state current measurements were normalized and expressed as a fraction of the peak or steady-state control current measurements, which were performed before and after application of every single concentration of agonists or steroids.
Concentration-response data were analyzed by nonlinear regress ion using the logistic equation Response=Emax/(1+(EC50/c)^nH), where c is concentration, Emaxis the maximum response, nHis the Hill coefficient. The data are presented as mean±SEM. EC50values are averaged as logarithms (De Lean et al., Am. J. Physiol. 235: E97-E102 (1978))±the SEM of the log EC50. […] The pooled data were simultaneously fitted to the logistic equation, either with Emax and EC50 constrained to be identical in the presence and absence of PS, or allowing one or both to vary independently. […] This was regarded as indicating a significant treatment effect of PS, but the change in EC50and Emaxwas not considered significant. […] No attempt was made to test the generally small changes in nHfor statistical significance.

[1] = system: NMDA receptor (chick spinal cord neurons); conditions: Park-Chung et al. 1997; cited from earlier work
NR1000/NR2B = biological target: T1, NR1000/NR2B (Rattus norvegicus, UniProt P35439+Q00960); assay: NMDA receptor currents in Ba-Ringer, Xenopus oocytes, Example 3; type: cell-based
T1 construct: expressed in transfected cells; host or cells: Xenopus oocytes injected with RNA

NR1/NR2A = biological target: T2, NR1/NR2A (Rattus norvegicus, UniProt P35439+Q00959); assay: NMDA-induced membrane currents, Xenopus oocytes, Example 7; type: cell-based
T2 construct: expressed in transfected cells; host or cells: Xenopus oocytes injected with mRNA
Description: Plasmids were linearized with appropriate restriction enzyme prior to in vitro transcription using the Message Machine kit (Ambion, Inc., Austin, Tex.).
Oocytes were injected with 50 nL of RNA solutions using an electronic microinjector (Drummond Inc., Broomall, Pa.). […] The injected oocytes were used for experiments following 1-5 days of incubation in Barth's solution at 18-20° C.
The microelectrodes were fabricated with a programmed puller (Sutter Instrument Co., Calif.) from borosilicate glass capillaries and were filled with 3 M KCl solution. The resistance of filled microelectrodes was in the range of 1-3 MΩ. […] If not mentioned otherwise, during data acquisition oocytes were clamped at a holding potential of −70 mV. The membrane current was filtered at 500 Hz and sampled at 100 Hz. Drugs were applied using a gravity driven external perfusion system. The working ,volume of the recording chamber was 30 μl and the rate of the perfusion was 50 μl/sec. The drug application lasted 10 sec and was followed by a 60 sec wash. The data acquisition and external perfusion control were done using the SuperScopeII software package (GW Instruments, Mass.). […] Peak or steady-state current measurements were normalized and expressed as a fraction of the peak or steady-state control current measurements, which were performed before and after application of every single consentration of agonist or steroid. […]

NR1000/NR2A = NR1000/NR2A (Rattus norvegicus, UniProt P35439+Q00959); assay: NMDA-induced currents of NR1 splice variants, Xenopus oocytes, Example 4; type: cell-based; design: expressed in transfected cells; host or cells: Xenopus oocytes injected with NR1000 and NR2A mRNA; conditions: NR1000/2A; 100 μM PS; 200 μM NMDA+10 μM glycine
Description: Overnight cultures (500 ml) of transformed bacterial cells were prepared in order to grow sufficient quantities for maxiprep isolation of the plasmid CDNA. Maxipreps were done using a Sorvall RC-5B ultracentrifuge, Qiagen columns and cDNA was quantitated with spectrophotometry (OD260 and OD260/ OD280 ratio). The resulting plasmid cDNA was linearized by digestion with an appropriate restriction enzyme that cleaves distal to the cDNA insert (XhoI for NR2A or NotI for NR1100, NR1000, NR1111, NR1011, NR1101, NR1001). […] The samples were stored at −20° C. until use.
In vitro transcription was performed using the Ambion mMessage mMachine kit with T7 (NR1100, NR1000, NR1111, NR1011, NR1101, NR1001) RNA polymerase. The reaction was assembled on ice and allowed to incubate at 37° C. for 1-2 hr. The resulting mRNA was precipitated (reaction termination) using lithium chloride/5 mM EDTA solution and dissolved in RNase-free H2O. The concentration (OD260) and OD260/OD280 ratio (should be more than 1.5) was determined by spectrophotometer. The yield of mRNA was generally 15-30 μg. mRNA was stored at −80° C. until use.
Intracellular recording microelectrodes were fabricated from 100 μl borosilicate glass disposable micropipettes using a 2-step protocol on a standard horizontal Flaming-Brown micropipette puller.

T2 sequence (Q00959 23-1464, other chains not shown): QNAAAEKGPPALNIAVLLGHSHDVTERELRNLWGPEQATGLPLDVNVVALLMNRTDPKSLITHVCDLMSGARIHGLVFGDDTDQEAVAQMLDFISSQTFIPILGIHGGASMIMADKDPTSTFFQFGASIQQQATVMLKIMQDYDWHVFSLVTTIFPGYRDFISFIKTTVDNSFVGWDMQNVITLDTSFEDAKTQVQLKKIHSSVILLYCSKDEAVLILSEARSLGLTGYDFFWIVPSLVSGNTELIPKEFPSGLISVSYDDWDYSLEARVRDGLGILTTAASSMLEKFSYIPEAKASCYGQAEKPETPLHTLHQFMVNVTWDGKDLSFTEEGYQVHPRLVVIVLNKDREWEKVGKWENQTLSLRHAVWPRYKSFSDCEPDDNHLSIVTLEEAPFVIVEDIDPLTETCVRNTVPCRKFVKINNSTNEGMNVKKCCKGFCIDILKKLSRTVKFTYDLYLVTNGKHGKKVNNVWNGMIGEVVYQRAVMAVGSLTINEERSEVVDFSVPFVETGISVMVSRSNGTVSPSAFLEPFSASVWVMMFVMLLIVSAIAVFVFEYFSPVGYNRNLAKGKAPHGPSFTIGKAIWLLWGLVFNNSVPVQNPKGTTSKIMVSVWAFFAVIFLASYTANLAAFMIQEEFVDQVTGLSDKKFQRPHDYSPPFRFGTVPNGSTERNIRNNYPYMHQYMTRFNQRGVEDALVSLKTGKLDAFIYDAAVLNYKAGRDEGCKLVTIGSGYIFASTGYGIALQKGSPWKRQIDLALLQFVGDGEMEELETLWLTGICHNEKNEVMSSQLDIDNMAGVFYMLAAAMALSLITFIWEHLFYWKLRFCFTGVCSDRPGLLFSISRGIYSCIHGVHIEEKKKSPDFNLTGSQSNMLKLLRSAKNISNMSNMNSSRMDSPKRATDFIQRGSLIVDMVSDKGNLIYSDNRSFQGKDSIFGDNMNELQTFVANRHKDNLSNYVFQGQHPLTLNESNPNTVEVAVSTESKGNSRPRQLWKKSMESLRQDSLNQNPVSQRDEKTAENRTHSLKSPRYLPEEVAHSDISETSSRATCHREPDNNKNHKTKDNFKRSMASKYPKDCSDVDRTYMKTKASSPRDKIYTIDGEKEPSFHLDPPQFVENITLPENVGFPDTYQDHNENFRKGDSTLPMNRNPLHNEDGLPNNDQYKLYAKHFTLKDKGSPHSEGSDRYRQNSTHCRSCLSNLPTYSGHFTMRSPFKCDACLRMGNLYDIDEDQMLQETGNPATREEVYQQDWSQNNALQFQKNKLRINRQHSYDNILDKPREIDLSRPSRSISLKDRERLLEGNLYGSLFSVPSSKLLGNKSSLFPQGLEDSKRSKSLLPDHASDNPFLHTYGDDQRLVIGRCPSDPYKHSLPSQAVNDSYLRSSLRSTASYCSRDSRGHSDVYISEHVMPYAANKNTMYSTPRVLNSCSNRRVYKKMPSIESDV
Sequence of NR1/NR2D (NR1100) (Q62645 28-1323, other chains not shown): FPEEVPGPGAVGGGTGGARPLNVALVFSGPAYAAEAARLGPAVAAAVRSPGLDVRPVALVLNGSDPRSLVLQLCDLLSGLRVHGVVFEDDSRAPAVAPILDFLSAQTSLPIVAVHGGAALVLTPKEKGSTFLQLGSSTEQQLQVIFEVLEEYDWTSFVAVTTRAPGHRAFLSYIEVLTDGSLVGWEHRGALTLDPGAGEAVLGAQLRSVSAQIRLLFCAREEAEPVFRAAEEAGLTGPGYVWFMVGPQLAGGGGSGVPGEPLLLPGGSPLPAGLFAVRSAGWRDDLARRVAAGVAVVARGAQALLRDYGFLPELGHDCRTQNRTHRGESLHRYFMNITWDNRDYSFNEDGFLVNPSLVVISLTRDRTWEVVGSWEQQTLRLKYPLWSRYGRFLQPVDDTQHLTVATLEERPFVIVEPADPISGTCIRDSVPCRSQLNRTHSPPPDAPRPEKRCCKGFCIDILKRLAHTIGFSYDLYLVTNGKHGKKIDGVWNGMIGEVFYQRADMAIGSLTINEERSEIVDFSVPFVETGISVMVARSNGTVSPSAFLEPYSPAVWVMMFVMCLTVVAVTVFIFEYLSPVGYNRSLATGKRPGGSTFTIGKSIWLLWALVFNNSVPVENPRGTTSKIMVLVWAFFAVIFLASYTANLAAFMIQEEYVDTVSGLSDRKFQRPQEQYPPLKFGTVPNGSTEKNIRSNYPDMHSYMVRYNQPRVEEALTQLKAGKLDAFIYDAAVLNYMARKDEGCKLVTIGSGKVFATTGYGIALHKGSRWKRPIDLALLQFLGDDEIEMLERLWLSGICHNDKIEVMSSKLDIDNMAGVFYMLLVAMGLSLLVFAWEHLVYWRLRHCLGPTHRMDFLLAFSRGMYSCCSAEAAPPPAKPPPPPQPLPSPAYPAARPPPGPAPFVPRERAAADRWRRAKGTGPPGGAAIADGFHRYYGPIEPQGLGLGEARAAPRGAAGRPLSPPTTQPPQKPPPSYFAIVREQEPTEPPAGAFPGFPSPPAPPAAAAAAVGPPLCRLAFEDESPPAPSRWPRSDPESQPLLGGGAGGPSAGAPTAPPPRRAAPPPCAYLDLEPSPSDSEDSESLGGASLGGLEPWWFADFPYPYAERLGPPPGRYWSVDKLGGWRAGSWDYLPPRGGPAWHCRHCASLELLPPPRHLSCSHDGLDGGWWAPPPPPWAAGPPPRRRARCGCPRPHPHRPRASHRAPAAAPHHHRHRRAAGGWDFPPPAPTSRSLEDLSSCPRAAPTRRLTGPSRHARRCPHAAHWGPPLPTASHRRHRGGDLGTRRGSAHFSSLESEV
T1 sequence (Q00960 27-1482, other chains not shown): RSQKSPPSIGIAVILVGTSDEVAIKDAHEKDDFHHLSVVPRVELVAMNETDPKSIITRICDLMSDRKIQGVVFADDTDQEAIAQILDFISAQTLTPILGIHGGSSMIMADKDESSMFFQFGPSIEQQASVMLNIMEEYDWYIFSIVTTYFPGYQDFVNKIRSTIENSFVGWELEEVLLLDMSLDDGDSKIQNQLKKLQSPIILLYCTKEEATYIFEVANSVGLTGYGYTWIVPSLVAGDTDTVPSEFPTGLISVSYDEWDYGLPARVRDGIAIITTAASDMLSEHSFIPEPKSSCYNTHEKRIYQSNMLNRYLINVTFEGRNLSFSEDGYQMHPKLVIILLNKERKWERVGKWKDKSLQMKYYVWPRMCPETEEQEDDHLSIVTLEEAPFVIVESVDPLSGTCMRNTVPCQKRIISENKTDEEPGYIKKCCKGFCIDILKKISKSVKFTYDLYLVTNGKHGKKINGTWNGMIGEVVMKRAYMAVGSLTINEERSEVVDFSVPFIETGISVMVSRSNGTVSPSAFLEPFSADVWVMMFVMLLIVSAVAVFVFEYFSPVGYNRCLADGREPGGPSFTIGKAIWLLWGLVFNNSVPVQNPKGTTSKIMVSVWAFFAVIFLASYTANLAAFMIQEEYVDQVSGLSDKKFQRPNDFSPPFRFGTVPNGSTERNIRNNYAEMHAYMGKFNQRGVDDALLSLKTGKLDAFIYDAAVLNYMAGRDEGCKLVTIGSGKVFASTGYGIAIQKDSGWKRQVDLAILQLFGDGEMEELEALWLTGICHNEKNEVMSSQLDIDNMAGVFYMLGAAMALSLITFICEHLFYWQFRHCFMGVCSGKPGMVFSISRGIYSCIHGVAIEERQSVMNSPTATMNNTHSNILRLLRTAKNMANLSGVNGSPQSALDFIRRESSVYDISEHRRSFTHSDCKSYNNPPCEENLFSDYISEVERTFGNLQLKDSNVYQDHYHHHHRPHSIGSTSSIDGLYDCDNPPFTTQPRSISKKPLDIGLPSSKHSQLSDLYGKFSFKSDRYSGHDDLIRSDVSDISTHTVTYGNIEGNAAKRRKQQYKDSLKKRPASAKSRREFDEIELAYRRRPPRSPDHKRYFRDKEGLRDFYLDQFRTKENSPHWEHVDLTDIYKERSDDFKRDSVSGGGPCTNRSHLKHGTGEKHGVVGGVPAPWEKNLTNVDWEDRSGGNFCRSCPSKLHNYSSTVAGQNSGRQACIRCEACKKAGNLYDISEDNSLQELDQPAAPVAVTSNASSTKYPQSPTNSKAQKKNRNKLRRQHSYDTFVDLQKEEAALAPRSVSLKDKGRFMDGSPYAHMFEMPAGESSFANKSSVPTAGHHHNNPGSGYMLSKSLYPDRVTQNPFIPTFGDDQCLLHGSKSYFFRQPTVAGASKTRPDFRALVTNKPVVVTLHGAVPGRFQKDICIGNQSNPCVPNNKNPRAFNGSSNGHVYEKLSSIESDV

Compound	EC50 (NR1/NR2D (NR1100)) [µM]	Emax (NR1/NR2D (NR1100); read-out: 3α5βS Emax (% Change)) [%]	modulation of NMDA-induced current [1]	PS Emax (NR1000/NR2B)	PS nHill (NR1000/NR2B)	potentiation of NMDA responsive membrane current (NR1/NR2A; 100 μM PS, 80 μM NMDA, 10 μM glycine) [%]	maximum potentiation (NR1/NR2A; PS 0.5 to 200 μM) [%]	maximum relative current (MRC) (NR1000/NR2A)
CC(=O)[C@H]1CC[C@H]2[C@@H]3CC[C@@H]4C[C@H](OS(=O)(=O)O)CC[C@]4(C)[C@H]3CC[C@]12C [3α5βS, 3α5β-pregnanolone sulfate]	14	-98 ± 7	strong inhibitors					
pregnenolone sulfate [PS]				0.58 ± 0.04	1.52 ± 0.15	59±4	67±7	1.29
